Species on record: Rattus norvegicus
Experiment: DrugMatrix - Regimen: Daily Repeat
Type: toxicity, organism-based, Sprague-Dawley
Parameters: regimen Daily Repeat, gender Male, age 6-8 weeks
Conditions: in vivo, po, 0 mg/kg, route oral GAVAGE, dose level Control, vehicle .5 % CMC; for ABSOLUTE BASOPHIL / ABSOLUTE EOSINOPHIL / ABSOLUTE LYMPHOCYTE / ABSOLUTE MONOCYTE / ABSOLUTE SEGMENTED NEUTROPHIL / BASOPHIL / EOSINOPHIL / ERYTHROCYTE COUNT / HEMATOCRIT / HEMOGLOBIN / LEUKOCYTE COUNT / LYMPHOCYTE / MEAN CORPUSCULAR HEMOGLOBIN / MEAN CORPUSCULAR HEMOGLOBIN CONCENTRATION / MEAN CORPUSCULAR VOLUME / MONOCYTE / NEUTROPHIL / NUCLEATED RED BLOOD CELLS / PLATELET COUNT: tissue Blood; for ALANINE AMINOTRANSFERASE / ALBUMIN / ALKALINE PHOSPHATASE / ASPARTATE AMINOTRANSFERASE / BLOOD UREA NITROGEN / CARBON DIOXIDE / CHLORIDE / CHOLESTEROL / CREATINE PHOSPHOKINASE / CREATININE / GLUCOSE / LACTATE DEHYDROGENASE / LIPASE / PHOSPHORUS / POTASSIUM / SODIUM / TOTAL BILIRUBIN / TOTAL PROTEIN / URIC ACID: tissue Plasma

COc1ccc(/C=C/C(=O)Nc2ccccc2C(=O)O)cc1OC
ABSOLUTE BASOPHIL (72 h, time 3 day): 0 CELLS/uL
ABSOLUTE EOSINOPHIL (72 h, time 3 day): 222.83 CELLS/uL
ABSOLUTE LYMPHOCYTE (72 h, time 3 day): 14453 CELLS/uL
ABSOLUTE MONOCYTE (72 h, time 3 day): 0 CELLS/uL
ABSOLUTE SEGMENTED NEUTROPHIL (72 h, time 3 day): 1490.83 CELLS/uL
BASOPHIL (72 h, time 3 day): 0%
EOSINOPHIL (72 h, time 3 day): 1.33%
ERYTHROCYTE COUNT (72 h, time 3 day): 5.76 x10E6/uL
HEMATOCRIT (72 h, time 3 day): 36.52%
HEMOGLOBIN (72 h, time 3 day): 13.45 G/DL
LEUKOCYTE COUNT (72 h, time 3 day): 16.17 x10E3/uL
LYMPHOCYTE (72 h, time 3 day): 89.33%
MEAN CORPUSCULAR HEMOGLOBIN (72 h, time 3 day): 23.37 pg
MEAN CORPUSCULAR HEMOGLOBIN CONCENTRATION (72 h, time 3 day): 36.85 G/DL
MEAN CORPUSCULAR VOLUME (72 h, time 3 day): 63.47 fL
MONOCYTE (72 h, time 3 day): 0%
NEUTROPHIL (72 h, time 3 day): 9.33%
NUCLEATED RED BLOOD CELLS (72 h, time 3 day): 0 /100WBC
PLATELET COUNT (72 h, time 3 day): 1239.5 x10E3/uL
ALANINE AMINOTRANSFERASE (72 h, time 3 day): 43.83 u/L
ALBUMIN (72 h, time 3 day): 4.27 G/DL
ALKALINE PHOSPHATASE (72 h, time 3 day): 398.83 u/L
ASPARTATE AMINOTRANSFERASE (72 h, time 3 day): 81.17 u/L
BLOOD UREA NITROGEN (72 h, time 3 day): 17.67 mg/dL
CARBON DIOXIDE (72 h, time 3 day): 27.5 mmol/L
CHLORIDE (72 h, time 3 day): 99.17 MEQ/L
CHOLESTEROL (72 h, time 3 day): 74 mg/dL
CREATINE PHOSPHOKINASE (72 h, time 3 day): 331.5 u/L
CREATININE (72 h, time 3 day): 0.2 mg/dL
GLUCOSE (72 h, time 3 day): 171.33 mg/dL
LACTATE DEHYDROGENASE (72 h, time 3 day): 241.67 u/L
LIPASE (72 h, time 3 day): 9.5 u/L
PHOSPHORUS (72 h, time 3 day): 12.25 mg/dL
POTASSIUM (72 h, time 3 day): 6.33 MEQ/L
SODIUM (72 h, time 3 day): 141.28 MEQ/L
TOTAL BILIRUBIN (72 h, time 3 day): 0.15 mg/dL
TOTAL PROTEIN (72 h, time 3 day): 5.98 G/DL
URIC ACID (72 h, time 3 day): 1.63 mg/dL
ABSOLUTE BASOPHIL (120 h, time 5 day): 0 CELLS/uL
ABSOLUTE EOSINOPHIL (120 h, time 5 day): 148.67 CELLS/uL
ABSOLUTE LYMPHOCYTE (120 h, time 5 day): 16020.5 CELLS/uL
ABSOLUTE MONOCYTE (120 h, time 5 day): 29.17 CELLS/uL
ABSOLUTE SEGMENTED NEUTROPHIL (120 h, time 5 day): 1468.33 CELLS/uL
BASOPHIL (120 h, time 5 day): 0%
EOSINOPHIL (120 h, time 5 day): 1%
ERYTHROCYTE COUNT (120 h, time 5 day): 5.78 x10E6/uL
HEMATOCRIT (120 h, time 5 day): 35.77%
HEMOGLOBIN (120 h, time 5 day): 13.4 G/DL
LEUKOCYTE COUNT (120 h, time 5 day): 17.67 x10E3/uL
LYMPHOCYTE (120 h, time 5 day): 90.5%
MEAN CORPUSCULAR HEMOGLOBIN (120 h, time 5 day): 23.22 pg
MEAN CORPUSCULAR HEMOGLOBIN CONCENTRATION (120 h, time 5 day): 37.47 G/DL
MEAN CORPUSCULAR VOLUME (120 h, time 5 day): 61.92 fL
MONOCYTE (120 h, time 5 day): 0.17%
NEUTROPHIL (120 h, time 5 day): 8.33%
NUCLEATED RED BLOOD CELLS (120 h, time 5 day): 0.17 /100WBC
PLATELET COUNT (120 h, time 5 day): 1255.5 x10E3/uL
ALANINE AMINOTRANSFERASE (120 h, time 5 day): 46.5 u/L
ALBUMIN (120 h, time 5 day): 4.38 G/DL
ALKALINE PHOSPHATASE (120 h, time 5 day): 336 u/L
ASPARTATE AMINOTRANSFERASE (120 h, time 5 day): 76.5 u/L
BLOOD UREA NITROGEN (120 h, time 5 day): 20 mg/dL
CARBON DIOXIDE (120 h, time 5 day): 27.5 mmol/L
CHLORIDE (120 h, time 5 day): 101 MEQ/L
CHOLESTEROL (120 h, time 5 day): 71.33 mg/dL
CREATINE PHOSPHOKINASE (120 h, time 5 day): 231.83 u/L
CREATININE (120 h, time 5 day): 0.37 mg/dL
GLUCOSE (120 h, time 5 day): 168.83 mg/dL
LACTATE DEHYDROGENASE (120 h, time 5 day): 174 u/L
LIPASE (120 h, time 5 day): 8.67 u/L
PHOSPHORUS (120 h, time 5 day): 11.48 mg/dL
POTASSIUM (120 h, time 5 day): 6.82 MEQ/L
SODIUM (120 h, time 5 day): 143.8 MEQ/L
TOTAL BILIRUBIN (120 h, time 5 day): 0.2 mg/dL
TOTAL PROTEIN (120 h, time 5 day): 5.98 G/DL
URIC ACID (120 h, time 5 day): 1.83 mg/dL
